PMC6158191, “Crystal structure of the red light-activated channelrhodopsin Chrimson” (Nature Communications, 2018)
Values belong to the compound of their own block, whether it stands above or below them.

Tests used:
[1] = molecular target: T1, C1Chrimson (called Chrimson in the structure and spectroscopy sections) (Chlamydomonas noctigama, UniProt Z9S8G4QJ52); experiment: X-ray crystallography, […] Å; format: binding; settings: covalent; Schiff base to conserved lysine; crystals at low pH, dark
T1 construct: residues 1-79 of CsChrimson replaced by CrChR1 1-76; Sf9; C-terminal TEV-EGFP-FLAG cleaved for crystals; C-terminal FLAG for spectroscopy; dimer
T1 sequence (Z9S8G4QJ52 1-347): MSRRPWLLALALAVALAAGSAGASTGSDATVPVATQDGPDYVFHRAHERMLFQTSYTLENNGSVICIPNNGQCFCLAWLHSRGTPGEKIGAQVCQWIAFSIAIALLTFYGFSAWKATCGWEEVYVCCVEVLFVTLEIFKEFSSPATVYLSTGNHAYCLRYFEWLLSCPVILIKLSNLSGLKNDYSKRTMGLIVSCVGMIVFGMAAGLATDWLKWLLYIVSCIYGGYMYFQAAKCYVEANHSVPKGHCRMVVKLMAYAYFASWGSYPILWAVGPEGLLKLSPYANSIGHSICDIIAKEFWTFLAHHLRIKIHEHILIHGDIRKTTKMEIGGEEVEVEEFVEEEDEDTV

[2] = molecular target: T2, CsChrimson (Chlamydomonas noctigama, UniProt Z9S8G4QJ52, , form not given); experiment: whole-cell patch clamp, HEK293, photocurrent on cation exchange; format: cell-based; settings: permeant ion; 110 mM guanidinium chloride outside replacing NaCl; 110 mM NaCl inside, pHi 7.2
T2 construct: extracellular N-terminus of Chrimson replaced by that of C. subdivisa channelrhodopsin; in pmCerulean-C1 vector; HEK293 cells; with Channelrhodopsin (Chloromonas subdivisa; N-terminal extracellular part of the same polypeptide)
T2 sequence (Z9S8G4QJ52 77-347 R159H): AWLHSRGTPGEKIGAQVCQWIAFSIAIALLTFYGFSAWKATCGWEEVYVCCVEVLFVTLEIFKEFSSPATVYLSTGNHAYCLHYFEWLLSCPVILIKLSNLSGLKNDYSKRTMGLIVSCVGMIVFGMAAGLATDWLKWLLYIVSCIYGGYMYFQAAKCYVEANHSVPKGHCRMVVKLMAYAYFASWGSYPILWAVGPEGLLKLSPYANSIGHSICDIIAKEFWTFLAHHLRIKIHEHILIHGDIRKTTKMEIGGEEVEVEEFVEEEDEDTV

[3] = molecular target: C1Chrimson (Chrimson variant with the extracellular N-terminal sequence replaced by that of CrChR1) (Chlamydomonas reinhardtii | Chlamydomonas noctigama); experiment: crystal structure; lipidic cubic phase (monoolein) crystals, 28-33% PEG500DME, 100 mM Na citrate pH 5.0, 100 mM Na malonate pH 7.0, 10-40 mM sarcosine; two protomers in the asymmetric unit; 2.6 Å

Compound: CC1=C(/C=C/C(C)=C/C=C/C(C)=C/C=O)C(C)(C)CCC1 [all-trans retinal]
X-ray crystallography, 2.6 Å [1]: including the covalently attached all-trans retinal

Compound: N=C(N)N [guanidinium]
whole-cell patch clamp, HEK293, photocurrent on cation exchange [2]: ion-conducting pore of the R162H mutant is permeable to the large cation guanidinium

stoichiometry N [3]: 2
Compound: C1Chrimson (Chrimson variant with the extracellular N-terminal sequence replaced by that of CrChR1)
